Like-named read-outs stand apart in the source and are kept apart here.
Columns and labels:
grazed skin [1] = test: Short term exposure on grazed skin in two volunteers (irritation); details: 10^−4 M, short term (5 mins) exposure
nasal mucosa [2] = test: Contact with the nasal mucosa (irritation); details: contact for 10 minute periods
grazed skin [3] = details: human, in vivo
nasal mucosa [4] = details: in vivo
[5] = Stability of iron hydroxypyrones in liquid as a function of pH; assay type: physicochemical; details: acid pH
Description: There is another advantage of a liquid formulation of a ferric tri (hydroxypyrone) in that there is no need to have an acidified preparation for either efficacy or stability. […] This is a significant difference between ferric pyrones in solution and ferrous salts used in medicine.
Unlike the ferrous products a maximum stability of the liquid ferric pyrones and ferrous products containing maltol is achieved in the pH range 5.5-8. With this knowledge the formulations developed require ingredients suited to this constraint and also standardisation of colour and taste for patient acceptability. At higher concentrations of active a suspension formulation may be preferred. Furthermore the excipients must not reduce the excellent bio-availability of iron from iron pyrone formulations.

Structure (SMILES): O=S(=O)([O-])[O-].[Fe+2] [FeS04, iron sulphate]
- Irritation of grazed skin (grazed skin [1]): did not induce irritation
- Irritancy to nasal mucosa (nasal mucosa [2]): neither iron tri-maltol or iron sulphate in contact with the nasal mucosa for 10 minute periods proved to be irritant

Structure (SMILES): Cc1occc(=O)c1[O-].Cc1occc(=O)c1[O-].Cc1occc(=O)c1[O-].[Fe+3] [Fe[Maltol]3, ferric trimaltol]
- Irritation of grazed skin (grazed skin [3]): did not induce irritation
- Irritancy to nasal mucosa (nasal mucosa [4]): neither iron tri-maltol or iron sulphate in contact with the nasal mucosa for 10 minute periods proved to be irritant
- Stability behaviour in liquid [5]: disproportionates at acid pH values
